According to US12378224B2 (Dong-A Socio Holdings Co., Ltd., priority 2016, dated 2025):

Biological target: human MER (528-end) (Homo sapiens (Human), UniProt Q12866)
Assay: HTRF Kinase Activity Biochemical Assay (KinEASE-TK)
Details: 10 uM ATP
In short: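 Activity read-out is the HTRF ratio (665 nm over 620 nm emission, ×10,000; excitation 340 nm) after 1 h detection with 0.375 nM Eu3+-cryptate anti-TK antibody plus 0.062 uM SA-XL665. Preceding kinase step: human MER (528-end), biotinylated TK substrate, 1 h, room temperature.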

Sequence of human MER (528-end) (Q12866 528-999 limits assumed): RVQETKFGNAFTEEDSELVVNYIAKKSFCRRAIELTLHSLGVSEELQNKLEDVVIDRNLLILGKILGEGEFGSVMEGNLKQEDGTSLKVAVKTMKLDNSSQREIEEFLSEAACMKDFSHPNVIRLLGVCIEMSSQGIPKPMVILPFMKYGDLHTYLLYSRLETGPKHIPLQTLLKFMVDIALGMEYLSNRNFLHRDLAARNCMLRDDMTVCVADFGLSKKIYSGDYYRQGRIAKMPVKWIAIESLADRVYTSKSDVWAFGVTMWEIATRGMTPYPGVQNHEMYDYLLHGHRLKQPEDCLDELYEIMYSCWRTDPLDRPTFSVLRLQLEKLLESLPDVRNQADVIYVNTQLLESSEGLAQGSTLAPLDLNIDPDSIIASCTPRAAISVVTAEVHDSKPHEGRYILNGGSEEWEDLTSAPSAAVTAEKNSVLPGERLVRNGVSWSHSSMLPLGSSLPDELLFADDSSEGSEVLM

First: Cn1cc(-c2cnc(N)c(C(=O)N[C@@H]3CCN(C(=O)c4ccc(-c5ccccc5)cc4)C3)c2)cn1 [Example 343, (R)—N-(1-([1,1′-biphenyl]-4-carbonyl)pyrrolidin-3-yl)-2-amino-5-(1-methyl-1H-pyrazol-4-yl)nicotinamide]
Second: Cn1cc(-c2cnc(N)c(C(=O)N[C@H]3CCN(C(=O)c4cccc(-c5ccccc5)c4)C3)c2)cn1 [Example 345, (S)—N-(1-([1,1′-biphenyl]-3-carbonyl)pyrrolidin-3-yl)-2-amino-5-(1-methyl-1H-pyrazol-4-yl)nicotinamide]
The IC50 of the first is lower: 0.01 to 0.1 µM for the first, over 1 µM for the second.

`Cn1cc(-c2cnc(N)c(C(=O)N[C@@H]3CCN(C(=O)c4ccc(-c5ccccc5CO)cc4)C3)c2)cn1` [Example 349, (R)-2-amino-N-(1-(2′-(hydroxymethyl)-[1,1′-biphenyl]-4-carbonyl)pyrrolidin-3-yl)-5-(1-methyl-1H-pyrazol-4-yl)nicotinamide] and `CCc1ccccc1-c1ccc(C(=O)N2CC[C@@H](NC(=O)c3cc(-c4cnn(C)c4)cnc3N)C2)cc1` [Example 353, (R)-2-amino-N-(1-(2′-ethyl-[1,1′-biphenyl]-4-carbonyl)pyrrolidin-3-yl)-5-(1-methyl-1H-pyrazol-4-yl)nicotinamide] fall in the same range of IC50: 0.1 to 1 µM for the first, 0.1 to 1 µM for the second.

Compared with `CC(C)c1ccccc1-c1ccc(C(=O)N2CC[C@@H](NC(=O)c3cc(-c4cnn(C)c4)cnc3N)C2)cc1` [Example 350, (R)-2-amino-N-(1-(2′-isopropyl-[1,1′-biphenyl]-4-carbonyl)pyrrolidin-3-yl)-5-(1-methyl-1H-pyrazol-4-yl)nicotinamide], `Cn1cc(-c2cnc(N)c(C(=O)N[C@@H]3CCN(C(=O)c4ccc(-c5ccccc5Cl)cc4)C3)c2)cn1` [Example 359, (R)-2-amino-N-(1-(2′-chloro-[1,1′-biphenyl]-4-carbonyl)pyrrolidin-3-yl)-5-(1-methyl-1H-pyrazol-4-yl)nicotinamide] is lower in IC50: 0.1 to 1 µM for the first, 0.01 to 0.1 µM for the second.

`Cn1cc(-c2cnc(N)c(C(=O)N[C@@H]3CCN(C(=O)c4ccc(-c5ccccc5Oc5ccccc5)cc4)C3)c2)cn1` [Example 351, (R)-2-amino-5-(1-methyl-1H-pyrazol-4-yl)-N-(1-(2^1-phenoxy-[1,1′-biphenyl]-4-carbonyl)pyrrolidin-3-yl)nicotinamide] and `Cn1cc(-c2cnc(N)c(C(=O)N[C@@H]3CCN(C(=O)c4ccc(-c5ccccc5-c5ccccc5)cc4)C3)c2)cn1` [Example 352, (R)—N-(1-([1,1′:2′,1″-terphenyl]-4-carbonyl)pyrrolidin-3-yl)-2-amino-5-(1-methyl-1H-pyrazol-4-yl)nicotinamide] cannot be ordered by IC50: over 1 µM for the first, over 1 µM for the second.

`COc1ccccc1-c1ccc(C(=O)N2CC[C@@H](NC(=O)c3cc(-c4cnn(C)c4)cnc3N)C2)cc1` [Example 354, (R)-2-amino-N-(1-(2′-methoxy-[1,1′-biphenyl]-4-carbonyl)pyrrolidin-3-yl)-5-(1-methyl-1H-pyrazol-4-yl)nicotinamide] and `Cn1cc(-c2cnc(N)c(C(=O)N[C@@H]3CCN(C(=O)c4ccc(-c5ccccc5Br)cc4)C3)c2)cn1` [Example 373, (R)-2-amino-N-(1-(2′-bromo-[1,1′-biphenyl]-4-carbonyl)pyrrolidin-3-yl)-5-(1-methyl-1H-pyrazol-4-yl)nicotinamide] fall in the same range of IC50: 0.01 to 0.1 µM for the first, 0.01 to 0.1 µM for the second.

First: Cn1cc(-c2cnc(N)c(C(=O)N[C@@H]3CCN(C(=O)c4ccc(-c5ccc(F)nc5)cc4)C3)c2)cn1 [Example 357, (R)-2-amino-N-(1-(4-(6-fluoropyridin-3-yl)benzoyl)pyrrolidin-3-yl)-5-(1-methyl-1H-pyrazol-4-yl)nicotinamide]
Second: Cn1cc(-c2cnc(N)c(C(=O)N[C@@H]3CCN(C(=O)c4ccc(-c5ccc(Cl)c(Cl)c5)cc4)C3)c2)cn1 [Example 362, (R)-2-amino-N-(1-(3′,4′-dichloro-[1,1′-biphenyl]-4-carbonyl)pyrrolidin-3-yl)-5-(1-methyl-1H-pyrazol-4-yl)nicotinamide]
The IC50 of the first is higher: over 1 µM for the first, 0.1 to 1 µM for the second.

`Cn1cc(-c2cnc(N)c(C(=O)N[C@@H]3CCN(C(=O)c4ccc(-c5ccsc5)cc4)C3)c2)cn1` [Example 358, (R)-2-amino-5-(1-methyl-1H-pyrazol-4-yl)-N-(1-(4-(thiophen-3-yl)benzoyl)pyrrolidin-3-yl)nicotinamide] and `Cn1cc(-c2cnc(N)c(C(=O)N[C@@H]3CCN(C(=O)c4ccc(-c5ccc(O)cc5)cc4)C3)c2)cn1` [Example 380, (R)-2-amino-N-(1-(4′-hydroxy-[1,1′-biphenyl]-4-carbonyl)pyrrolidin-3-yl)-5-(1-methyl-1H-pyrazol-4-yl)nicotinamide] fall in the same range of IC50: 0.1 to 1 µM for the first, 0.1 to 1 µM for the second.

First: Cn1cc(-c2cnc(N)c(C(=O)N[C@@H]3CCN(C(=O)c4ccc(-c5cccc(Cl)c5)cc4)C3)c2)cn1 [Example 360, (R)-2-amino-N-(1-(3′-chloro-[1,1′-biphenyl]-4-carbonyl)pyrrolidin-3-yl)-5-(1-methyl-1H-pyrazol-4-yl)nicotinamide]
Second: Cn1cc(-c2cnc(N)c(C(=O)N[C@@H]3CCN(C(=O)c4ccc(-c5ccc(Cl)cc5)cc4)C3)c2)cn1 [Example 377, (R)-2-amino-N-(1-(4′-chloro-[1,1′-biphenyl]-4-carbonyl)pyrrolidin-3-yl)-5-(1-methyl-1H-pyrazol-4-yl)nicotinamide]
The IC50 of the first is lower: 0.01 to 0.1 µM for the first, 0.1 to 1 µM for the second.

`Cn1cc(-c2cnc(N)c(C(=O)N[C@@H]3CCN(C(=O)c4ccc(-c5ccc(Cl)cc5Cl)cc4)C3)c2)cn1` [Example 361, (R)-2-amino-N-(1-(2′,4′-dichloro-[1,1′-biphenyl]-4-carbonyl)pyrrolidin-3-yl)-5-(1-methyl-1H-pyrazol-4-yl)nicotinamide] and `Cn1cc(-c2cnc(N)c(C(=O)N[C@@H]3CCN(C(=O)c4ccc(-c5cc(Cl)ccc5Cl)cc4)C3)c2)cn1` [Example 367, (R)-2-amino-N-(1-(2′,5′-dichloro-[1,1′-biphenyl]-4-carbonyl)pyrrolidin-3-yl)-5-(1-methyl-1H-pyrazol-4-yl)nicotinamide] fall in the same range of IC50: 0.01 to 0.1 µM for the first, 0.01 to 0.1 µM for the second.

`Cn1cc(-c2cnc(N)c(C(=O)N[C@@H]3CCN(C(=O)c4ccc(-c5cc(Cl)cc(Cl)c5)cc4)C3)c2)cn1` [Example 363, (R)-2-amino-N-(1-(3′,5′-dichloro-[1,1′-biphenyl]-4-carbonyl)pyrrolidin-3-yl)-5-(1-methyl-1H-pyrazol-4-yl)nicotinamide] and `Cn1cc(-c2cnc(N)c(C(=O)N[C@@H]3CCN(C(=O)c4ccc(-c5c(Cl)cccc5Cl)cc4)C3)c2)cn1` [Example 368, (R)-2-amino-N-(1-(2′,6′-dichloro-[1,1′-biphenyl]-4-carbonyl)pyrrolidin-3-yl)-5-(1-methyl-1H-pyrazol-4-yl)nicotinamide] fall in the same range of IC50: 0.1 to 1 µM for the first, 0.1 to 1 µM for the second.

`Cn1cc(-c2cnc(N)c(C(=O)N[C@@H]3CCN(C(=O)c4ccc(-c5ccc(C(F)(F)F)cc5)cc4)C3)c2)cn1` [Example 371, (R)-2-amino-5-(1-methyl-1H-pyrazol-4-yl)-N-(1-(4′-(trifluoromethyl)-[1,1′-biphenyl]-4-carbonyl)pyrrolidin-3-yl)nicotinamide] and `Cn1cc(-c2cnc(N)c(C(=O)N[C@@H]3CCN(C(=O)c4ccc(-c5ccc(C(C)(C)C)cc5)cc4)C3)c2)cn1` [Example 378, (R)-2-amino-N-(1-(4′-(tert-butyl)-[1,1′-biphenyl]-4-carbonyl)pyrrolidin-3-yl)-5-(1-methyl-1H-pyrazol-4-yl)nicotinamide] cannot be ordered by IC50: over 1 µM for the first, over 1 µM for the second.

First: Cn1cc(-c2cnc(N)c(C(=O)N[C@@H]3CCN(C(=O)c4ccc(-c5ccc(OCc6ccccc6)cc5)cc4)C3)c2)cn1 [Example 372, (R)-2-amino-N-(1-(4′-(benzyloxy)-[1,1′-biphenyl]-4-carbonyl)pyrrolidin-3-yl)-5-(1-methyl-1H-pyrazol-4-yl)nicotinamide]
Second: Cn1cc(-c2cnc(N)c(C(=O)N[C@@H]3CCN(C(=O)c4ccc(-c5ccccc5O)cc4)C3)c2)cn1 [Example 375, (R)-2-amino-N-(1-(2′-hydroxy-[1,1′-biphenyl]-4-carbonyl)pyrrolidin-3-yl)-5-(1-methyl-1H-pyrazol-4-yl)nicotinamide]
The IC50 of the first is higher: over 1 µM for the first, 0.1 to 1 µM for the second. The second is the more potent here.

First: Cc1c(N)cccc1-c1ccc(C(=O)N2CC[C@@H](NC(=O)c3cc(-c4cnn(C)c4)cnc3N)C2)cc1 [Example 376, (R)-2-amino-N-(1-(3′-amino-2′-methyl-[1,1′-biphenyl]-4-carbonyl)pyrrolidin-3-yl)-5-(1-methyl-1H-pyrazol-4-yl)nicotinamide]
Second: CN1CCN(c2ccc(-c3ccc(C(=O)N4CC[C@@H](NC(=O)c5cc(-c6cnn(C)c6)cnc5N)C4)cc3)cc2)CC1 [Example 383, (R)-2-amino-5-(1-methyl-1H-pyrazol-4-yl)-N-(1-(4′-(4-methylpiperazin-1-yl)-[1,1′-biphenyl]-4-carbonyl)pyrrolidin-3-yl)nicotinamide]
The IC50 of the first is lower: 0.1 to 1 µM for the first, over 1 µM for the second. The first is the more potent here.

First: Cn1cc(-c2cnc(N)c(C(=O)N[C@@H]3CCN(C(=O)c4ccc(-c5ccc(C(C)(C)N6CCNCC6)cc5)cc4)C3)c2)cn1 [Example 384, (R)-2-amino-5-(1-methyl-1H-pyrazol-4-yl)-N-(1-(4′-(2-(piperazin-1-yl)propan-2-yl)-[1,1′-biphenyl]-4-carbonyl)pyrrolidin-3-yl)nicotinamide]
Second: CN1CCN(C(C)(C)c2ccc(-c3ccc(C(=O)N4CC[C@@H](NC(=O)c5cc(-c6cnn(C)c6)cnc5N)C4)cc3)cc2)CC1 [Example 386, (R)-2-amino-5-(1-methyl-1H-pyrazol-4-yl)-N-(1-(4′-(2-(4-methylpiperazin-1-yl)propan-2-yl)-[1,1′-biphenyl]-4-carbonyl)pyrrolidin-3-yl)nicotinamide]
The IC50 of the first is lower: 0.01 to 0.1 µM for the first, 0.1 to 1 µM for the second.

With `CN1CCN(Cc2ccc(-c3ccc(C(=O)N4CC[C@@H](NC(=O)c5cc(-c6cnn(C)c6)cnc5N)C4)cc3)cc2)CC1` [Example 385, (R)-2-amino-5-(1-methyl-1H-pyrazol-4-yl)-N-(1-(4′-((4-methylpiperazin-1-yl)methyl)-[1,1′-biphenyl]-4-carbonyl)pyrrolidin-3-yl)nicotinamide] the IC50 was 0.01 to 0.1 µM.
